Test results published in PMC5698418 (Nature Communications, 2017).
Like-named read-outs stand apart in the source and are kept apart here.

Test system: BDNF-induced nuclear Arc expression in primary cortical neurons
Assay: Chemogenomic screen: high-content image-based assay of BDNF-induced nuclear Arc expression (96-well)
Format: cell-based, mouse
Method in brief: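 Nuclear Arc immunofluorescence is quantified automatically within an acetyl-H3K9-defined nuclear mask from ×40 images. Cultures are DIV13 mouse forebrain cortical neurons seeded at 30,000 per well and exposed to BDNF plus compound at a final 16.7 µM, with triplicate biological replicates.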

[1] = chemogenomic (SMART) screen, BDNF-induced nuclear Arc expression, primary cortical neurons, BDNF control 19.5
[2] = nuclear Arc-positive cells relative to DMSO + BDNF control, negative values = decrease
[3] = BDNF-induced nuclear Arc expression, primary cortical neurons, chemogenomic screen

| Compound | Percentage of cell with nuclear Arc immunostaining above 2σ threshold [1] | Fold-change — Normalized to DMSO control (BDNF) [2] | other results |
| --- | --- | --- | --- |
| LM22A-4 | 14.0% | -1.4 fold |  |
| NC(=O)N1c2ccccc2CC(=O)c2ccccc21 [Oxcarbazepine] | 23.6% | 1.2 fold |  |
| CC(C)S(=O)(=O)N[C@H]1CCOC[C@@H]1c1ccc(-c2ccc(C#N)s2)cc1 [PF 4778574] |  | 1.8 fold | Percentage of cell with nuclear Arc immunostaining above 2σ threshold: 35.9% |
| CN1CCc2c(c3ccccc3n2Cc2ccc(C(=O)NO)cc2)C1 [Tubastatin A] | 21.3% | 1.1 fold |  |
| CN[C@H]1CC[C@@H](c2ccc(Cl)c(Cl)c2)c2ccccc21 [Sertraline] |  |  | Percentage of cell with nuclear Arc immunostaining above 2σ threshold [3]: 0.0% |
| CC(=O)[C@H]1CC[C@H]2[C@@H]3CC[C@H]4C[C@](C)(O)CC[C@]4(C)[C@H]3CC[C@]12C [Ganaxolone] |  | 1.2 fold | Percentage of cell with nuclear Arc immunostaining above 2σ threshold: 22.6% |
| CN(C)CCC=C1c2ccccc2COc2ccccc21 [Doxepin] |  |  | Percentage of cell with nuclear Arc immunostaining above 2σ threshold [3]: 10.2% |
| CC[C@H](CO)Nc1nc(NCc2ccccc2)c2ncn(C(C)C)c2n1 [Roscovitine] |  |  | Fold-change — Normalized to DMSO control (BDNF): 1.3 fold; Percentage of cell with nuclear Arc immunostaining above 2σ threshold: 24.9% |
| CCC1(c2ccccc2)C(=O)NCNC1=O [Primidone] | 17.3% |  |  |
| CCCN(CCC)CCc1cccc2c1CC(=O)N2 [Ropinirole] | 14.2% |  |  |
| CCCn1cnc2c1c(=O)n(CCCCC(C)=O)c(=O)n2C [Propentofylline] | 33.4% | 1.7 fold |  |
| O=C(COc1ccc(Cl)cc1)N1CCN(Cc2ccc3c(c2)OCO3)CC1 [Fipexide] | 41.7% | 2.1 fold |  |
| CCCN[C@H]1CCc2nc(N)sc2C1 [Pramipexole] | 14.5% |  |  |
| CN[C@@H]1Cc2cccc3[nH]c(=O)n(c23)C1 [Sumanirole] | 40.3% | 2.1 fold |  |
| C#CCN(C)CCCOc1ccc(Cl)cc1Cl [Clorgyline] |  |  | Percentage of cell with nuclear Arc immunostaining above 2σ threshold [3]: 7.4%; Fold-change — Normalized to DMSO control (BDNF) (nuclear Arc-positive cells relative to DMSO control (BDNF), negative = decrease): -2.6 fold |
| C#CCN[C@@H]1CCc2ccccc21 [Rasagiline] | 14.8% |  |  |
| O=C1[C@H]2CCCC[C@H]2C(=O)N1CCCCN1CCN(c2nsc3ccccc23)CC1 [Perospirone] | 17.9% |  |  |
| CCOC(=O)Nc1ccc(NCc2ccc(F)cc2)cc1N [Retigabine] |  |  | Fold-change — Normalized to DMSO control (BDNF): 1.7 fold; Percentage of cell with nuclear Arc immunostaining above 2σ threshold: 32.9% |
| O=c1c(O)c(-c2ccc(O)c(O)c2)oc2cc(O)cc(O)c12 [Sophoretin] |  |  | Percentage of cell with nuclear Arc immunostaining above 2σ threshold [3]: 9.3% |
| O=C1NCCN1CCN1CCC(c2cn(-c3ccc(F)cc3)c3ccc(Cl)cc23)CC1 [Sertindole] |  |  | Percentage of cell with nuclear Arc immunostaining above 2σ threshold [3]: 0.18% |
| O=C(O[C@@H]1Cc2c(O)cc(O)cc2O[C@@H]1c1cc(O)c(O)c(O)c1)c1cc(O)c(O)c(O)c1 [(-)-Epigallocatechin gallate] | 38.0% | 1.9 fold |  |
| CCN[C@H]1C[C@H](C)S(=O)(=O)c2sc(S(N)(=O)=O)cc21 [Dorzolamide] |  |  | Percentage of cell with nuclear Arc immunostaining above 2σ threshold [3]: 7.1% |
| O=C(O)c1ccc(O)c2ncccc12 [IOX1] | 44.2% | 2.3 fold |  |
| C/C=C1\[C@H]2C=C(C)C[C@]1(N)c1ccc(=O)[nH]c1C2 [Huperzine A] | 14.8% |  |  |
| Cc1ncc(CSSCc2cnc(C)c(O)c2CO)c(CO)c1O [Pyrithioxine] | 21.3% | 1.1 fold |  |
